Test results as given in patent US20260207570A1, “OPTIMIZED DOSING OF LERIGLITAZONE” (MINORYX THERAPEUTICS S.L., priority 2022, published 2026).
Values joined by “and” are separate entries in the source; they are usually repeats but may differ in a detail not shown here. Identical values can stand only once.

What was measured:
CYP2C8 = molecular target: T1, CYP2C8 (Homo sapiens, UniProt P10632); assay: CYP2C8 contribution to clearance (fm, CLint) for the PBPK model; conditions: before accounting for biliary and renal clearance
T1 sequence (P10632 1-490): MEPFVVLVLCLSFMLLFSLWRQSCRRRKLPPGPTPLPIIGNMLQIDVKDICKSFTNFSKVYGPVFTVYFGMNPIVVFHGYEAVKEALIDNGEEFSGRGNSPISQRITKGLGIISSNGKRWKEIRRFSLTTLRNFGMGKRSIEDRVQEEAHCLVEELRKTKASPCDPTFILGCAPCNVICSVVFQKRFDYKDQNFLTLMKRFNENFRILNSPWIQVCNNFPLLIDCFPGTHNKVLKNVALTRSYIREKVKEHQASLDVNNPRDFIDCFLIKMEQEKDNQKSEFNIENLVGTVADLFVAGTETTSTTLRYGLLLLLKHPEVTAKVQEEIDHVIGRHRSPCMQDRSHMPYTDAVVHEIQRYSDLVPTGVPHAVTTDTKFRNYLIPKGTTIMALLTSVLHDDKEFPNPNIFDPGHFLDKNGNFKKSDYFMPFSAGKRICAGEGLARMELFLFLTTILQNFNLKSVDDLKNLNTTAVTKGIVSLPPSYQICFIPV
Excerpt: CYP2C8 and CYP3A4 were identified in vitro as the major contributing enzymes of leriglitazone with CYP2C8 mostly responsible for the formation of the main metabolite M3. Kinetic parameters of human CYP2C8 and CYP3A4 mediated metabolism of leriglitazone were studied in in vitro studies using recombinant CYP3A4 and CYP2C8 enzymes (ADMESCOPE, Finland). […] As the disappearance of leriglitazone was very slow especially at high initial concentrations, the accuracy of the fit was not as good as based on M3 formation. […] Thus, it was not possible to fit the kinetic parameters Km and Vmax.

[1] = Population pharmacokinetic model of studies MT-1-01, MT-2-01, MT-2-03; type: in vivo, human
Excerpt: MT-1-01 (healthy volunteers), MT-2-01 (adult men with adrenomyeloneuropathy (AMN), MT-2-03 (men, women≥12 years with Friedreich's Ataxia).
A total of 2140 valid plasma concentration measurements from 130 individuals were used in the analysis. Full PK profiles were available only from MT-1-01. In MT-2-03 only pre-dose (trough) concentrations were taken at multiple visits, while in MT-2-01 also sparse post-dose samples were taken. Less than 1% of all samples were below the limit of quantification.
2. Structural model-development using only data from healthy volunteers (MT-1-01) and inclusion of key structural covariates (food, body weight).
3. Re-estimation of parameters on the full analysis dataset (MT-1-01, MT-2-01, MT-2-03). Finalization of base model.
4. Stepwise automatic covariate modeling (SCM) using the base model.
NONMEM v7.5 was used for the population modelling. The RxODE package (v0.9.2) for R (v4.0.2) was used for the simulations.
Automated stepwise covariate modeling (SCM) using a forward addition/backward deletion procedure as implemented in PsN, Karlsson and Savic, C/in Pharmacol Ther 82:17-20 (2008), was applied to the base model on the complete analysis dataset. To improve the computation time of the SCM, PsN generates a linearized form of the model applying a Taylor-transformation on which then the covariate function is applied. Anderson et al., Annu Rev Pharmacol Toxicol 48:303-332 (2008). The final model from the SCM procedure was then rerun in its original, untransformed form.
The following covariates were tested in the model for their association with CL and relative bioavailability (F): • BMI • Height • Age • Ethnicity (Hispanic yes/no) • Sex

[2] = Single dose neuro-pk study in rats; type: in vivo; conditions: rat
Experimental: The ratio of unbound leriglitazone concentration in brain to unbound concentration in plasma (Kpu,u; Cb,u/Cp,u) was calculated dividing the unbound CSF Cmax by the unbound plasma Cmax. Fractions unbound in plasma (fu,p) to obtain the unbound Cmax values were already reported. Rodriguez-Pascau, L. et al., Sci. Transl. Med. 13, eabc0555 (2021).
In a single dose neuro-pk study in rats, at the efficacious dose of 17 mg/kg, the unbound brain concentration of leriglitazone was 175 ng/ml similar to the measured CSF concentration of 274 ng/ml (FIG. 7). Given the validity of CSF as a surrogate marker for brain unbound concentration was proven in rats, CSF levels of leriglitazone were measured in Phase 1 study and confirmed to be similar as in rodents. Unbound brain to plasma ratio (Kpu,u) of leriglitazone as a measure of brain distribution of free drug was 0.55 in humans and 0.25 in rats (Table 7).

[3] = Adult PBPK model (Simcyp) development, simulation and verification; set-up: species or system human
Excerpt: A PBPK model for leriglitazone HCl was developed with the Simcyp Population-Based Simulator Version 17 release 1.
A first-order absorption model with inputs based on clinical data was used to describe the absorption kinetics of the drug. Dose-dependent ka values were estimated from phase 1 SAD data and were incorporated to account for the less than dose proportional increase in the Cmax of leriglitazone as well as the negative food effect on the Cmax (Table 2).
A global scalar of 0.7 was applied to match the estimated value. The full PBPK model was applied in all simulations of the plasma concentration-time profiles of the drug in order to recover the shape of the concentration-time profiles.
Predictions of plasma concentration-time profiles and clearance were performed in the Simcyp Simulator using the default Sim-Healthy volunteer population, whose parameter values have been described previously. Howgate, E. M., et al., Xenobiotica Fate Foreign Compd. Biol. Syst. 36, 473-497 (2006); Inoue, S. et al., Xenobiotica Fate Foreign Compd. Biol. Syst. 36, 499-513 (2006). The trial design used for simulation of the plasma concentration-time profile of a single dose of leriglitazone in fasted and fed subjects was based on the phase 1 SAD results. Concentration-time profiles, using 10 virtual trials of 6 subjects (all male) aged 21 to 50 years receiving a single oral dose of 30, 90 or 270 mg under the fasted conditions and a single oral dose of 90 or 270 mg under fed conditions were simulated over a duration of 144 hours. Visual checks of the predicted concentration-time profiles were performed and the key PK parameters (AUC, Cmax and Tmax) were compared to those observed in the phase 1 study (Table 8).
The PBPK model was verified by comparing the predicted concentration-time profiles with the observed phase 1 MAD data. The trial design used for simulation was based on multiple doses of 135 mg or 270 mg in fed healthy subjects. […]

SMILES: CC(O)c1ccc(CCOc2ccc(CC3SC(=O)NC3=O)cc2)nc1 (stereo not shown) [Leriglitazone, 5-[[4-[2-[5-(1-hydroxyethyl)pyridin-2-yl]ethoxy]phenyl]methyl]-1,3-thiazolidine-2,4-dione]
- share of metabolism, CYP2C8 (CYP2C8): 63.7%
- lower CL in women ([1]; popPK covariate sex): 14.7%
- reduction of absorption rate when taken with food ([1]; popPK estimate): 82.9%
- reduction of bioavailability by food ([1]; popPK estimate): 4.8% and < 5%
- typical rate of absorption ([1]; taken without food, popPK estimate): 5.2 h⁻¹
- Kp ([2]; CSF and plasma (unbound), 17 mg/kg, unbound CSF Cmax / unbound plasma Cmax, read-out: Kpu, u based on CSF): 0.25
- AUC ([2]; plasma, 17 mg/kg single dose, read-out: Total plasma AUC): 102 µg·h/mL
- Cmax ([2]; plasma, 17 mg/kg single dose, read-out: Total plasma Cmax): 21100 ng/mL
- CSF Cmax ([2]; 17 mg/kg single dose): 274 ng/mL
- Total brain AUC ([2]; 17 mg/kg single dose): 6.582 µg·h/mL
- Total brain Cmax ([2]; 17 mg/kg single dose): 1337.6 ng/mL
- Kpu, u based on CSF ([2]; 17 mg/kg, unbound CSF Cmax / unbound plasma Cmax): 0,25
- unbound brain concentration ([2]; efficacious dose of 17 mg/kg, single dose): 175 ng/mL
- renal clearance fraction (fe) ([3]; PBPK model): 5%
- CLint, additional ([3]; PBPK model input): 0.281 µL/min/mg
- share of metabolism, undefined metabolism ([3]; before accounting for biliary and renal clearance): 6%
